Data: US20250289787A1, “HERBICIDAL 2-OXO-NICOTINIC ACID DERIVATIVES” (SYNGENTA CROP PROTECTION AG, priority 2022, published 2025)

What was measured:
Format in all cases: in vivo
Design in all cases: key: 5=81-100%; 4=61-80%; 3=41-60%; 2=21-40%; 1=1-20%; 0=no damage to the plant; -=not tested
[1] = system: Amaranthus palmeri (AMAPA); test: Pre-emergence test, herbicidal damage; conditions: 1000 g/ha unless otherwise stated, evaluated after 13 days, five-point scale
[2] = system: Amaranthus retoflexus (AMARE); test: Pre-emergence test, herbicidal damage; conditions: 1000 g/ha unless otherwise stated, evaluated after 13 days, five-point scale
Zea mays (ZEAMX) [3] = test: Pre-emergence test, herbicidal damage; conditions: 1000 g/ha unless otherwise stated, evaluated after 13 days, five-point scale
Setaria faberi (SETFA) [4] = test: Pre-emergence test, herbicidal damage; conditions: 1000 g/ha unless otherwise stated, evaluated after 13 days, five-point scale
[5] = system: Ipomoea hederacea (IPOHE); test: Pre-emergence test, herbicidal damage; conditions: 1000 g/ha unless otherwise stated, evaluated after 13 days, five-point scale
[6] = system: Amaranthus palmeri (AMAPA); test: Post-emergence test, herbicidal damage; conditions: sprayed after 8 days cultivation, 1000 g/ha unless otherwise stated, evaluated after 13 days, five-point scale
Method: (§1) Seeds of a variety of test species are sown in standard soil in pots Amaranthus palmeri (AMAPA), (Amaranthus retoflexus (AMARE), Echinochloa crus-galli (ECHCG), Zea mays (ZEAMX), Ipomoea 5 hederacea (IPOHE), and Setaria faberi (SETFA). After 8 days cultivation under controlled conditions in a glasshouse (at 24° C./16° C., day/night; 14 hours light; 65% humidity), the plants are sprayed with an aqueous spray solution derived from the formulation of the technical active ingredient in acetone/water (50:50) solution containing 0.5% Tween 20 (polyoxyethelyene sorbitan monolaurate, CAS RN 9005-64-5). Compounds are applied at 1000 g/ha unless otherwise stated. The test plants are then grown in a glasshouse under controlled conditions in a glasshouse (at 24° C./16° C., day/night; 14 hours light; 65% humidity) and watered twice daily. After 13 days the test is evaluated for the percentage damage caused to the plant. The biological activities are shown in the following table on a five-point scale (5=81-100%; 4=61-80%; 3=41-60%; 2=21-40%; 1=1-20%; 0=no damage to the plant; -=not tested).

Setaria faberi (SETFA) [7] = test: Post-emergence test, herbicidal damage; conditions: sprayed after 8 days cultivation, 1000 g/ha unless otherwise stated, evaluated after 13 days, five-point scale
Method: as §1

[8] = system: Ipomoea hederacea (IPOHE); test: Post-emergence test, herbicidal damage; conditions: sprayed after 8 days cultivation, 1000 g/ha unless otherwise stated, evaluated after 13 days, five-point scale
Method: as §1

[9] = system: Echinochloa crus-galli (ECHCG); test: Post-emergence test, herbicidal damage; conditions: sprayed after 8 days cultivation, 1000 g/ha unless otherwise stated, evaluated after 13 days, five-point scale
Method: as §1

Zea mays (ZEAMX) [10] = test: Post-emergence test, herbicidal damage; conditions: sprayed after 8 days cultivation, 1000 g/ha unless otherwise stated, evaluated after 13 days, five-point scale
Method: as §1

[11] = system: Amaranthus retoflexus (AMARE); test: Post-emergence test, herbicidal damage; conditions: sprayed after 8 days cultivation, 1000 g/ha unless otherwise stated, evaluated after 13 days, five-point scale
Method: as §1

[12] = system: Echinochloa crus-galli (ECHCG); test: Pre-emergence test, herbicidal damage; conditions: 1000 g/ha unless otherwise stated, evaluated after 13 days, five-point scale

SMILES | percentage damage caused to the plant, AMAPA [1] | percentage damage caused to the plant, AMARE [2] | percentage damage caused to the plant, ZEAMX (Zea mays (ZEAMX) [3]) | percentage damage caused to the plant, SEFTA (Setaria faberi (SETFA) [4]) | percentage damage caused to the plant, IPOHE [5] | percentage damage caused to the plant, AMAPA [6] | percentage damage caused to the plant, SEFTA (Setaria faberi (SETFA) [7]) | percentage damage caused to the plant, IPOHE [8] | percentage damage caused to the plant, ECHCG [9] | percentage damage caused to the plant, ZEAMX (Zea mays (ZEAMX) [10]) | percentage damage caused to the plant, AMARE [11] | percentage damage caused to the plant, ECHCG [12]
Cc1cc(-c2ccc(Cl)c(Cl)c2)c(C(=O)O)c(=O)[nH]1 [Compound 7, 4-(3,4-dichlorophenyl)-6-methyl-2-oxo-1H-pyridine-3-carboxylic acid] | 0 | 0 | 0 | 0 | 0 | 0 | 0 | 0 | 0 | 0 | 0 | 0
C=Cc1c(C)[nH]c(=O)c(C(=O)O)c1-c1ccc(Cl)c(Cl)c1 [Compound 8, 4-(3,4-dichlorophenyl)-6-methyl-2-oxo-5-vinyl-1H-pyridine-3-carboxylic acid] | 1 (1=1-20%) | 0 | 0 | 0 | 0 | 1 (1=1-20%) | 1 (1=1-20%) | 1 (1=1-20%) | 1 (1=1-20%) | 1 (1=1-20%) | 1 (1=1-20%) | 0
Cc1[nH]c(=O)c(C(=O)O)c(-c2ccc(Cl)c(Cl)c2)c1C [Compound 9, 4-(3,4-dichlorophenyl)-5,6-dimethyl-2-oxo-1H-pyridine-3-carboxylic acid] | 0 | 0 | 0 | 0 | 0 | 1 (1=1-20%) | 0 | 1 (1=1-20%) | 0 | 0 | 1 (1=1-20%) | 0
CCc1c(C)[nH]c(=O)c(C(=O)O)c1-c1ccc(Cl)c(Cl)c1 [Compound 10, 4-(3,4-dichlorophenyl)-5-ethyl-6-methyl-2-oxo-1H-pyridine-3-carboxylic acid] | 0 | 0 | 0 | 0 | 0 | 0 | 0 | 0 | 0 | 0 | 0 | 0
Cc1[nH]c(=O)c(C(=O)O)c(-c2ccc(Cl)c(Cl)c2)c1C#N [Compound 11, 5-cyano-4-(3,4-dichlorophenyl)-6-methyl-2-oxo-1H-pyridine-3-carboxylic acid] | 0 | 0 | 0 | 0 | 0 | 0 | 0 | 0 | 0 | 0 | 0 | 0
Cc1c(-c2ccc(Cl)c(Cl)c2)c(C(=O)O)c(=O)n(C)c1C [Compound 12, 4-(3,4-dichlorophenyl)-1,5,6-trimethyl-2-oxo-pyridine-3-carboxylic acid] | 1 (1=1-20%) | 0 | 0 | 2 (2=21-40%) | 0 | 2 (2=21-40%) | 1 (1=1-20%) | 1 (1=1-20%) | 1 (1=1-20%) | 0 | 1 (1=1-20%) | 1 (1=1-20%)
Cc1cc(-c2ccc(Cl)c(Cl)c2)c(C(=O)O)c(=O)n1-c1ccc(Cl)cc1F [Compound 13, 1-(4-chloro-2-fluoro-phenyl)-4-(3,4-dichlorophenyl)-6-methyl-2-oxo-pyridine-3-carboxylic acid] | 2 (2=21-40%) | 2 (2=21-40%) | 0 | 0 | 0 | 3 (3=41-60%) | 0 | 0 | 0 | 1 (1=1-20%) | 2 (2=21-40%) | 2 (2=21-40%)
Cc1cc(-c2ccc(Cl)c(Cl)c2)c(C(=O)O)c(=O)n1-c1cccc(C(F)(F)F)c1 [Compound 15, 4-(3,4-dichlorophenyl)-6-methyl-2-oxo-1-[3-(trifluoromethyl)phenyl]pyridine-3-carboxylic acid] | 4 (4=61-80%) | 4 (4=61-80%) | 0 | 2 (2=21-40%) | 0 | 4 (4=61-80%) | 2 (2=21-40%) | 1 (1=1-20%) | 1 (1=1-20%) | 1 (1=1-20%) | 4 (4=61-80%) | 0
Cc1cc(-c2ccc(Cl)c(Cl)c2)c(C(=O)O)c(=O)n1-c1ccc(F)cc1 [Compound 16, 4-(3,4-dichlorophenyl)-1-(4-fluorophenyl)-6-methyl-2-oxo-pyridine-3-carboxylic acid] | 0 | 0 | 0 | 0 | 0 | 2 (2=21-40%) | 2 (2=21-40%) | 1 (1=1-20%) | 1 (1=1-20%) | 1 (1=1-20%) | 1 (1=1-20%) | 0
